{
  "source": "patent US20260216348A1",
  "about": "“IRAK DEGRADATION AGENT AND USE THEREOF” (Increland, priority 2023, published 2026)",
  "key": {"[1]": {"tested_on": "CIA-induced rheumatoid arthritis model", "assay": "CIA-induced rheumatoid arthritis model", "format": "in vivo, DBA/1J mice", "details": "100 mg/kg, BID; Model 12.31 ± 2.97; Mean ± SD, n = 7", "experimental": "1. DBA/1J mice, male, SPF grade, were pre-acclimatized in the animal facility for one week. 2. On day 1, for the primary immunization, 2 mg/mL bovine type II collagen was mixed thoroughly with an equal volume of complete Freund's adjuvant on ice using a homogenizer until fully emulsified. 100 μL of the collagen emulsion (final concentration 1 mg/mL) was intradermally injected at 2 cm from the base of the mouse tail. Medical iodophor was used to disinfect the tail after injection to prevent tail necrosis, which was conducted for 3 consecutive days. 3. On day 21, bovine type II collagen solution was thoroughly mixed and emulsified with an equal volume of Freund's incomplete adjuvant, using the same method as the primary immunization. 4. On day 26, LPS was administered intraperitoneally at a dose of 50 μg/animal to induce disease. 5. On day 28, the affected mice were scored according to Table 33 and the diameter of their ankle joints was measured. Mice were randomly grouped and treated with medication based on their scores and ankle diameter."}, "[2]": {"tested_on": "DSS-induced enteritis model", "assay": "DSS-induced enteritis (colitis) model", "format": "in vivo, mice", "details": "100 mpk, po, BID; Model 10.33 ± 1.11; Mean ± SD, n = 7", "source_text": "The experimental mice were pre-acclimatized in the animal facility for one week; at the beginning of the experiment, the mice were given medication intragastrically daily according to their body weight. After the completion of intragastric administration in each group, mice had direct access to water bottles for free drinking. The blank group received normal water, while the other groups received pre-prepared DSS water. Each afternoon, the mice's abdomens were massaged to stimulate defecation, and one fecal pellet was collected onto a white porcelain plate. Fecal consistency was judged and recorded according to Table 30. The fecal occult blood qualitative test kit (Yuanye Biotechnology, #R24187-300T) was used to test for occult blood in feces and the results were interpreted according to Table 31."}, "IMQ psoriasis model": {"tested_on": "IMQ psoriasis model", "assay": "IMQ (imiquimod)-induced psoriasis model", "format": "in vivo, BALB/c mice", "details": "100 mg/kg, BID, Mean ± SD, n = 7", "experimental": "Male BALB/c mice, aged 6-8 weeks, were randomly divided into 9 groups after 1 week of acclimatization: blank control group, imiquimod model group (IMQ group, corresponding to the model groups in FIGS. 1 and 2), clobetasol propionate cream group (CLO group), TYKI (BMS-986165) group, IRAK4 protein degrader KT-474 (from patent WO2020113233) group (100 mg/kg), and the compound of the present disclosure (at an appropriate dose), with 6-7 mice in each group. One day before modeling, the hair on the backs of the mice was removed with depilatory cream, with a depilated area of 2×2 cm^2. On the day of modeling, IMQ cream was used for modeling, and the corresponding drugs were administered intragastrically for treatment. The compound of the present disclosure (at an appropriate dose) was administered intragastrically once daily, and IMQ cream was applied to the hairless area on the back and left ear of mice 2 h after the first administration. […] The blank group and the IMQ group were administered with vehicle intragastrically twice daily (in the morning and evening), with an 8-h interval between the two intragastric administrations. At 2 h after the first intragastric administration, vaseline and IMQ cream were applied topically to the depilated back and ears of the mice, respectively. The dosage of IMQ cream administered to the depilated area on the back and the left ear was 80 mg and 10 mg, respectively, and the mice in each group were administered the cream for 5 consecutive days.\nReference was made to the Psoriasis Area and Severity Index (PASI) scoring criteria. The psoriasis, erythema, and thickness of skin lesions on the back were scored from 0 to 4 every morning from day 1 of modeling, with the scoring criteria as shown in Table 28. The 3 were added up to obtain a total score, i.e., a total PASI score. The ear thickness of the left ear of the mouse was measured using a digital vernier caliper three times every morning from day 1 of modeling, to obtain a mean value."}},
  "data": [
    {"smiles": "Cn1c(=O)n(C2CCC(=O)NC2=O)c2cccc(C#CCOC3CCN(C[C@H]4CC[C@H](n5cc(NC(=O)c6cnn7ccc(N8C[C@H]9C[C@@H]8CO9)nc67)c(C(F)F)n5)CC4)CC3)c21", "note": "(stereo partly shown) [KT474, reference compound]", "values": [
      {"measurement": "DAI Score d 42", "setting": "[1]", "value": "11.63 ± 2.55"},
      {"measurement": "DAI Score d 8", "setting": "[2]", "value": "5.71 ± 1.28"},
      {"measurement": "PASI Score d 6", "setting": "IMQ psoriasis model; Model 8.85 ± 1.66", "value": "6.93 ± 2.36"},
      {"measurement": "ΔSkin Thickness Change (μm) d 6", "setting": "IMQ psoriasis model; Model 80.95 ± 6.16", "value": "31.90 ± 9.90", "unit": "μm"}
    ]}
  ]
}
